Structures are written as SMILES. Entries after “also recorded” stand apart in the source; their conditions may differ.

What all share (assay type): in vivo, human
The subject of assay [1] is subject with left-side trigeminal neuralgia and facial droop. The experiment in a line: Treatment of trigeminal neuralgia and facial palsy. The note with it: progesterone 1% (1 mg) four times daily to forehead followed by 0.15 g ganciclovir (0.15% formulation) up to five times daily. As for the experimental part:
A subject presented with left-side trigeminal neuralgia and left side facial droop of 10 years duration. Therapy was initiated by topically applying progesterone (1% by weight) equivalent to 1 mg four times daily to the patient's forehead. This was followed by application of 0.15 g ganciclovir (as a 0.15% by weight formulation) up to five times daily.

Assay [2] has as its system patients with ocular discomfort resulting from dry eye. The experiment in a line: Treatment of dry eye with topical progesterone applied cranially.
The test system is the same in assay [3]. Described as above. As for the experimental part:
Twenty-seven patients diagnosed with ocular discomfort resulting from dry eye were treated with topical progesterone (0.5%-1% by weight, corresponding to approximately 1-4 mg progesterone per application) applied to the forehead either once or twice per day.
A summary of clinical results is shown below in Table 2.
The source holds these as a separate data set.

In assay [4] the test system is patient with corneal Herpes zoster. The experiment in a line: Treatment of herpetic keratitis. The conditions noted are these: one year, 1 mg progesterone to forehead 2 or 3 times a day, no other drugs.
Assay [5] relates to post-surgical patients on glaucoma medication. Nature of the assay: Treatment of ocular discomfort and redness in post-surgical patients and patients on glaucoma medication. The note with it: 1% progesterone to forehead, three times daily or 2-3 times then once a day. An excerpt:
A […] […] had four eye surgeries and was being treated with two glaucoma eye drops (dorzolamide-timolol combination and travaprost) together with a lubricating eye gel twice a day.
A […] […] had multiple surgeries and was diagnosed with Fuch's corneal dystrophy and narrow angle glaucoma. Prior to the latest surgery, when they were almost legally blind, they started applying to their forehead 1% progesterone 2-3 times a day, then reduced the application frequency to once a day.

On to `CC(=O)[C@H]1CC[C@H]2[C@@H]3CCC4=CC(=O)CC[C@]4(C)[C@H]3CC[C@]12C` [progesterone], for which the “facial muscles contracted for 10 years” value in assay [1] is “relaxation of facial muscles”. The Results entry is “Stopped using lubricating drops. Redness,; also recorded: itching and scaly eyelids disappeared” in assay [2] (1% progesterone TID); “After prolonged use, no longer requires; also recorded: Eyes moist and tearing minutes after; also recorded: application. Stopped all auxiliary eye” in assay [3] (0.5-1% on the forehead, once daily); “Equally effective. Uses nightly once a day” in assay [3] (1% progesterone ON). In addition, the TBUT entry in assay [2] (subject 18, 1% progesterone 2-3 times/day, increased from 2) is reported as “TBUT increased from 2 to 8. Long term”. Further, in assay [3] (progesterone 0.5%-1% (about 1-4 mg per application) to forehead once or twice per day), the “overall clinical result in twenty-seven dry eye patients” value is “Improvement was seen in all cases; also recorded: Most patients were able to discontinue previous therapy”. Also, in assay [3] (subject 4, 1% progesterone), the “time until moisture felt” value is given as “moisture felt after 10 minutes; after weeks”. In assay [4], the corneal perforation entry is listed as “the cornea remained unperforated”. Also, in assay [5], the “ocular discomfort, redness and need for lubricating drops” value is “able to stop using the lubricating drops; also recorded: Redness also disappeared; also recorded: helped to ease irritation, lid sticking and redness”.

Source of the values: patent US10251835B2, “Cranial delivery of pharmaceuticals” (GLIA, LLC, priority 2013, dated 2019).
